From patent US20230233576A1, “ECLITASERTIB FOR USE IN TREATING CONDITIONS INVOLVING SYSTEMIC HYPERINFLAMMATORY RESPONSE” (priority 2020, published 2023)
Read-outs that look alike come from different tables or passages of the source.

Assay: Phase 1b severe COVID-19 study: pharmacokinetics (plasma concentrations, Bayesian population PK)
Assay type: in vivo, human
Conditions: for AUC(0-t) / Cmax: human, oral, 300 mg
Protocol: RIPK1 Inhibitor concentrations at selected time points over the two weeks of treatment were summarized by descriptive statistics. PK parameters such as Cmax, tmax, and AUC were calculated by a Bayesian analysis: the main results are presented in Section 5.2.
Descriptive statistics on plasma concentration of RIPK1 Inhibitor were analyzed by the Sponsor's Biostatistics Department.
Plasma concentrations of RIPK1 Inhibitor was listed and summarized by arithmetic mean, geometric mean, standard deviation (SD), standard error of the mean (SEM), coefficient of variance (%) (CV), minimum, median, maximum, and number of observations by timepoints. When applicable, relevant data were summarized by route: i.e., oral and oral gavage, and timepoints.
The pharmacokinetic parameters in participants with severe COVID-19 were assessed by Bayesian analysis using a POP population PK model (P0H0757) developed in other Phase 1 studies.
PK parameters were determined for 46 participants (one participant was excluded because all plasma concentrations were BLOQ). A summary of descriptive statistics on RIPK1 Inhibitor plasma AUC0-12, Cmax, and Ctrough over 2 weeks of treatment are presented in Table 43.

Q: Which “steady state reached on” value (300 mg BID for up to 14 days, severe COVID-19) does the source give for CN1C(=O)[C@@H](NC(=O)c2nnc(Cc3ccccc3)[nH]2)COc2cccnc21 [RIPK1 Inhibitor, (S)-5-benzyl-N-(5-methyl-4-oxo-2,3,4,5-tetrahydropyrido[3,2-b][1,4]oxazepin-3-yl)-4H-1,2,4-triazole-3-carboxamide] here?
A: 3 days

Q: What about the “exposure difference between male and female” value (300 mg BID, severe COVID-19) of the same compound?
A: No obvious exposure difference

Q: What about the “higher AUC0-12h in patients<85.6 kg as compared to ≥85.6 kg” value (300 mg BID, severe COVID-19) of the same compound?
A: 14%

Q: What about the “Ctrough, mean (SD)” value (300 mg BID, steady state (Day 3), plasma, severe COVID-19, Bayesian population PK) of the same compound?
A: 2025 (783) ng/mL

Q: What about the Ctrough (Day 1 (n = 46), Mean (SD), 300 mg BID, plasma, participants with severe COVID-19, Bayesian population PK analysis) of the same compound?
A: 1457 (442) ng/mL

Q: What about the Ctrough (Day 3 (n = 42), Mean (SD), 300 mg BID, plasma, participants with severe COVID-19, Bayesian population PK analysis) of the same compound?
A: 2025 (783) ng/mL

Q: What about the Ctrough (Day 7 (n = 26), Mean (SD), 300 mg BID, plasma, participants with severe COVID-19, Bayesian population PK analysis) of the same compound?
A: 2142 (838) ng/mL

Q: What about the Ctrough (Day 14 (n = 10), Mean (SD), 300 mg BID, plasma, participants with severe COVID-19, Bayesian population PK analysis) of the same compound?
A: 2524 (875) ng/mL

Q: What about the AUC(0-t) (plasma, 300 mg BID, steady state (Day 3), plasma, severe COVID-19, Bayesian population PK, read-out: AUC0-12h, mean (SD)) of the same compound?
A: 42200 ng·h/mL

Q: What about the Cmax (plasma, 300 mg BID, steady state (Day 3), plasma, severe COVID-19, Bayesian population PK, read-out: Cmax, mean (SD)) of the same compound?
A: 5170 ng/mL

Q: And the AUC(0-t) (plasma, Day 1 (n = 46), Mean (SD), 300 mg BID, plasma, participants with severe COVID-19, Bayesian population PK analysis, read-out: AUC0-12)?
A: 28200 ng·h/mL

Q: And the Cmax (plasma, Day 1 (n = 46), Mean (SD), 300 mg BID, plasma, participants with severe COVID-19, Bayesian population PK analysis, read-out: Cmax)?
A: 3680 ng/mL

Q: And the AUC(0-t) (plasma, Day 3 (n = 42), Mean (SD), 300 mg BID, plasma, participants with severe COVID-19, Bayesian population PK analysis, read-out: AUC0-12)?
A: 42200 ng·h/mL

Q: What about the Cmax (plasma, Day 3 (n = 42), Mean (SD), 300 mg BID, plasma, participants with severe COVID-19, Bayesian population PK analysis, read-out: Cmax) of the same compound?
A: 5170 ng/mL

Q: And the AUC(0-t) (plasma, Day 7 (n = 26), Mean (SD), 300 mg BID, plasma, participants with severe COVID-19, Bayesian population PK analysis, read-out: AUC0-12)?
A: 43800 ng·h/mL

Q: And the Cmax (plasma, Day 7 (n = 26), Mean (SD), 300 mg BID, plasma, participants with severe COVID-19, Bayesian population PK analysis, read-out: Cmax)?
A: 5340 ng/mL

Q: What about the AUC(0-t) (plasma, Day 14 (n = 10), Mean (SD), 300 mg BID, plasma, participants with severe COVID-19, Bayesian population PK analysis, read-out: AUC0-12) of the same compound?
A: 48400 ng·h/mL

Q: What about the Cmax (plasma, Day 14 (n = 10), Mean (SD), 300 mg BID, plasma, participants with severe COVID-19, Bayesian population PK analysis, read-out: Cmax) of the same compound?
A: 5630 ng/mL
